# Several values for one entry are separate records, joined by “and”; a condition that tells them apart may be missing. Equal entries are not always repeated.
# Target: V2 (Homo sapiens, UniProt P30518)
# Experiment: In vitro recombinant vasopressin receptor binding assay (V2 Bdg), displacement of 3H-arginine vasopressin
# Parameters: expressed in transfected cells; host or cells: HEK-293
# Settings: 0.1 uM; printed in parentheses in place of IC50
# Experimental: In vitro Recombinant Vasopressin Receptor Binding Assay
# Compounds were assessed for their ability to displace ^3H-arginine vasopressin from the human V-1 or V-2 receptor in HEK-293 cells. […] Into wells of 96-well round bottom polypropylene plates were added buffer, test compound, membrane (containing cloned human V-1 or V-2 receptor), and ^3H-vasopressin. The reaction plates were allowed to sit at room temperature for one hour. The samples were filtered through Unifilter GF/C plates (presoaked in 0.3 polyethyleneimine). The plates were washed 5 times with cold physiological saline containing 0.05% Tween 20. After drying, the bottom of the filter plates were sealed and 0.025 ml of Microscint-20 was added to each filter. The top of the plate was sealed, and the plate was counted.
row,Molecule,V2 Bdg % inh
1,"Cc1ccccc1C(=O)Nc1ccc(C(=O)N2CC3CN(C)CCN3Cc3ccccc32)c(C(F)(F)F)c1 (racemic) [Compound 74, (RS)-2-M ethyl-N-[3-trifluoromethyl-4-(1,3,4,12a-tetrahydro-2-methyl-6H-[1,4]pyrazino[4,3-a][1,4]-benzodiazepin-11(12H)-yl-carbonyl)phenyl]benzamide]",(4%/0.1 uM)
2,"O=C(Nc1ccc(C(=O)N2CC3CN(Cc4ccccc4)CCN3Cc3ccccc32)cc1)c1ccccc1-c1ccccc1 (racemic) [Compound 57, (RS)-2-Phenyl-N-[4-(1,3,4,12a-tetrahydro-2-benzyl-6H-[1,4]pyrazino[4,3-a][1,4]-benzodiazepin-11(12H)-yl-carbonyl)phenyl]benzamide]",(25%/0.1 uM)
3,"Cc1ccc(-c2ccccc2C(=O)Nc2ccc(C(=O)N3CC4CN(C)CCN4Cc4ccccc43)c(Cl)c2)cc1 (racemic) [Compound 66, (RS)-2-(4-Methyl-phenyl)-N-[3-chloro-4-(1,3,4,12a-tetrahydro-2-methyl-6H-[1,4]pyrazino[4,3-a][1,4]-benzodiazepin-11(12H)-yl-carbonyl)phenyl]benzamide]",(82%/0.1 uM)
4,"O=C(Nc1ccc(C(=O)N2CC3CSCCN3Cc3ccccc32)cc1)c1ccccc1-c1cccs1 (racemic) [Compound 52, (RS)-2-(2-Thienyl)-N-[4-(1,3,4,12a-tetrahydro-6H-[1,4]thiazino[4,3-a][1,4]-benzodiazepin-11(12H)-yl-carbonyl)phenyl]benzamide]",(36%/0.1 uM)
5,"CN1CCN2Cc3ccccc3N(C(=O)c3ccc(NC(=O)c4ccccc4F)cc3Cl)CC2C1 (racemic) [Compound 64, (RS)-2-Fluoro-N-[3-chloro-4-(1,3,4,12a-tetrahydro-2-methyl-6H-[1,4]pyrazino[4,3-a][1,4]-benzodiazepin-11(12H)-yl-carbonyl)phenyl]benzamide]",0% and 5%
6,"O=C(Nc1ccc(C(=O)N2CC3CNCCN3Cc3ccccc32)cc1)c1ccccc1-c1ccccc1 (racemic) [Compound 58, (RS)-2-Phenyl-N-[4-(1,3,4,12a-tetrahydro-6H-[1,4]pyrazino[4,3-a][1,4]-benzodiazepin-11(12H)-yl-carbonyl)phenyl]benzamide]",(33%/0.1 uM)
7,"(RS)-2-(3-Thienyl)-N-[4-(1,3,4,12a-tetrahydro-6H-[1,4]thiazino[4,3-a][1,4]-benzodiazepin-11(12H)-yl-carbonyl)phenyl]benzamide [Compound 49]",(59%/0.1 uM)
8,"CN1CCN2Cc3ccccc3N(C(=O)c3ccc(NC(=O)c4ccccc4-c4ccccc4)cc3C(F)(F)F)CC2C1 (racemic) [Compound 75, (RS)-2-Phenyl-N-[3-trifluoromethyl-4-(1,3,4,12a-tetrahydro-2-methyl-6H-[1,4]pyrazino[4,3-a][1,4]-benzodiazepin-11(12H)-yl-carbonyl)phenyl]benzamide]",(2%/0.1 uM)
9,"Cc1ccc(-c2ccccc2C(=O)Nc2ccc(C(=O)N3CC4CN(C)CCN4Cc4ccccc43)cc2C)cc1 (racemic) [Compound 79, (RS)-2-(4-Methyl-phenyl)-N-[2-methyl-4-(1,3,4,12a-tetrahydro-2-methyl-6H-(1,4]pyrazino[4,3-a][1,4]-benzodiazepin-11(12H)-yl-carbonyl)phenyl]benzamide]",(33%/0.1 uM)
10,"(RS)-2,6-Dimethyl-N-[3-chloro-4-(1,3,4,12a-tetrahydro-2-methyl-6H-[1,4]pyrazino[4,3-a][1,4]-benzodiazepin-11(12H)-yl-carbonyl)phenyl]benzamide [Compound 63]",(9%/0.1 uM)

# Same assay, conditions: membrane with cloned human V-2 receptor (HEK-293)
row,Molecule,IC50
1,"O=C(Nc1ccc(C(=O)N2CC3CS(=O)(=O)CCN3Cc3ccccc32)cc1)c1ccccc1-c1ccccc1 (racemic) [Compound 55, (RS)-2-Phenyl-N-[4-(1,3,4,12a-tetrahydro-2,2-dioxo-6H-[1,4]thiazino[4,3-a][1,4]-benzodiazepin-11(12H)-yl-carbonyl)phenyl]benzamide]",140 nM
2,"COc1cc(NC(=O)c2ccccc2-c2ccccc2)ccc1C(=O)N1CC2CSCCN2Cc2ccccc21 (racemic) [Compound 108, (RS)-2-Phenyl-N-[3-methoxy-4-(1,3,4,12a-tetrahydro-6H-[1,4]thiazino[4,3-a][1,4]-benzodiazepin-11(12H)-yl-carbonyl)phenyl)benzamide]",32 nM
3,"O=C(Nc1ccc(C(=O)N2C[C@@H]3COCCN3Cc3ccccc32)c(Cl)c1)c1ccccc1-c1ccccc1 [Compound 13, (R)-2-Phenyl-N-[3-chloro-4-(1,3,4,12a-tetrahydro-6H-[1,4]oxazino[4,3-a][1,4]-benzodiazepin-11(12H)-yl-carbonyl)phenyl]benzamide]",32 nM
4,"COc1ccc(C(=O)Nc2ccc(C(=O)N3CC4COCCN4Cc4ccccc43)c(Cl)c2)c(-c2ccccc2)c1 (racemic) [Compound 115, (RS)-2-Phenyl-4-methoxy-N-[3-chloro-4-(1,3,4,12a-tetrahydro-6H-[1,4]oxazino[4,3-a][1,4]-benzodiazepin-11(12H)-yl-carbonyl)phenyl]benzamide]",9 nM
5,"CN1CCN2Cc3ccccc3N(C(=O)c3ccc(NC(=O)c4ccccc4-c4ccccc4)cc3Cl)CC2C1 (racemic) [Compound 56, (RS)-2-Phenyl-N-[3-chloro-4-(1,3,4,12a-tetrahydro-2-methyl-6H-[1,4]pyrazino[4,3-a][1,4]-benzodiazepin-11(12H)-yl-carbonyl)phenyl]benzamide]",35 nM and 54 nM
6,"O=C(Nc1ccc(C(=O)N2C[C@H]3CSCCN3Cc3ccccc32)c(Cl)c1)c1ccccc1-c1ccccc1 [Compound 47, (S)-2-Phenyl-N-[3-chloro-4-(1,3,4,12a-tetrahydro-6H-[1,4]thiazino[4,3-a][1,4]-benzodiazepin-11(12H)-yl-carbonyl)phenyl]benzamide]",11 nM
7,"COc1ccc(-c2ccccc2C(=O)Nc2ccc(C(=O)N3CC4COCCN4Cc4ccccc43)c(Cl)c2)cc1 (racemic) [Compound 112, (RS)-2-(4-Methoxy-phenyl)-N-[3-chloro-4-(1,3,4,12a-tetrahydro-6H-[1,4]oxazino[4,3-a][1,4]-benzodiazepin-11(12H)-yl-carbonyl)phenyl]benzamide]",6 nM
8,"Cc1cc(NC(=O)c2ccccc2-c2ccccc2)ccc1C(=O)N1CC2CSCCN2Cc2ccccc21 (racemic) [Compound 107, (RS)-2-Phenyl-N-[3-methyl-4-(1,3,4,12a-tetrahydro-6H-[1,4]thiazino[4,3-a][1,4]-benzodiazepin-11(12H)-yl-carbonyl)phenyl]benzamide]",21 nM
9,"O=C(Nc1ccc(C(=O)N2CC3COCCN3Cc3ccccc32)c(Cl)c1)c1cc(F)ccc1-c1ccccc1 (racemic) [Compound 111, (RS)-2-Phenyl-5-fluoro-N-[3-chloro-4-(1,3,4,12a-tetrahydro-6H-[1,4]oxazino[4,3-a][1,4]-benzodiazepin-11(12H)-yl-carbonyl)phenyl]benzamide]",23 nM
10,"COc1ccc(-c2ccccc2)c(C(=O)Nc2ccc(C(=O)N3CC4COCCN4Cc4ccccc43)c(Cl)c2)c1 (racemic) [Compound 116, (RS)-2-Phenyl-5-methoxy-N-[3-chloro-4-(1,3,4,12a-tetrahydro-6H-[1,4]oxazino[4,3-a][1,4]-benzodiazepin-11(12H)-yl-carbonyl)phenyl]benzamide]",37 nM
11,"Cc1ccc(-c2ccccc2C(=O)Nc2ccc(C(=O)N3CC4COCCN4Cc4ccccc43)cc2)cc1 (racemic) [Compound 12, (RS)-2-(4-Methyl-phenyl)-N-[4-(1,3,4,12a-tetrahydro-6H-[1,4]oxazino[4,3-a][1,4]-benzodiazepin-11(12H)-yl-carbonyl)phenyl]benzamide]",6 nM
12,"O=C(Nc1ccc(C(=O)N2CC3CSCCN3Cc3ccccc32)c(Cl)c1)c1ccc(F)cc1-c1ccccc1 (racemic) [Compound 105, (RS)-2-Phenyl-4-fluoro-N-[3-chloro-4-(1,3,4,12a-tetrahydro-6H-[1,4]thiazino[4,3-a][1,4]-benzodiazepin-11(12H)-yl-carbonyl)phenyl]benzamide]",8 nM
13,"COc1cccc(-c2ccccc2C(=O)Nc2ccc(C(=O)N3CC4COCCN4Cc4ccccc43)c(Cl)c2)c1 (racemic) [Compound 113, (RS)-2-(3-Methoxy-phenyl)-N-[3-chloro-4-(1,3,4,12a-tetrahydro-6H-[1,4]oxazino[4,3-a][1,4]-benzodiazepin-11(12H)-yl-carbonyl)phenyl]benzamide]",8 nM

# Same assay, conditions: read-out: V2 Bdg % inh
row,Molecule,inhibition at 0.1 µM [%]
1,"Cc1csc(-c2ccccc2C(=O)Nc2ccc(C(=O)N3CC4COCCN4Cc4ccccc43)cc2)c1 (racemic) [Compound 54, (RS)-2-(4-Methyl-2-thienyl)-N-[4-(1,3,4,12a-tetrahydro-6H-[1,4]oxazino[4,3-a][1,4]-benzodiazepin-11(12H)-yl-carbonyl)phenyl]benzamide]",57
2,"CN1CCN2Cc3ccccc3N(C(=O)c3ccc(NC(=O)c4ccccc4-c4ccccc4)cc3Cl)CC2C1 (racemic) [Compound 56, (RS)-2-Phenyl-N-[3-chloro-4-(1,3,4,12a-tetrahydro-2-methyl-6H-[1,4]pyrazino[4,3-a][1,4]-benzodiazepin-11(12H)-yl-carbonyl)phenyl]benzamide]",71
3,"Cc1cccc2c1N(C(=O)c1ccc(NC(=O)c3ccccc3-c3ccccc3)cc1)CC1CSCCN1C2 (racemic) [Compound 39, (RS)-2-Phenyl-N-[4-(10-methyl-1,3,4,12a-tetrahydro-6H-[1,4]thiazino[4,3-a][1,4]-benzodiazepin-11(12H)-yl-carbonyl)phenyl]benzamide]",37
4,"COc1cccc2c1N(C(=O)c1ccc(NC(=O)c3ccccc3-c3ccccc3)cc1)CC1CSCCN1C2 (racemic) [Compound 40, (RS)-2-Phenyl-N-[4-(10-methoxy-1,3,4,12a-tetrahydro-6H-[1,4]thiazino[4,3-a][1,4]-benzodiazepin-11(12H)-yl-carbonyl)phenyl]benzamide]",12
